Experimental findings from patent US9701631B2, “TIP60 inhibitors” (The Trustees Of The University Of Pennsylvania, priority 2010, dated 2017) are described below.

One assay deals with FOXP3. Briefly: FOXP3 bound on chromatin in SZ-4 T cells (Western blot). The class given is cell-based. As to conditions: FIG. 9.
Assay [1] concerns Treg suppression of T cell proliferation. In words: Treg suppression assay in vitro (T cell proliferation, 3 days, CFSE dye, flow cytometry). Conditions: for enhancement of suppression of Treg in vitro: 500x dilution of 10 mM solution (20 micromolar), FIG. 10; for percentage of proliferated cells: Treg:Teff=1:1. The assay is classed as cell-based. The source says:
FIGS. 8A-D are flow cytometry dataplots showing the enhancement of TIP60 inhibitor B7 suppression of Treg in vitro. Individual peaks reflect number of cells divisions under the standard test conditions (3 days), where the cell populations are dyed with CFSE (carboxyfluorescen diacetate, succimidyl ester). FIG. 8A are the data for DMSO without B7; FIG. 8B are the data for B7-1000×; FIG. 8C are the data for B7-4000×; and FIG. 8D are the data for B7-8000. In each case, the 1000×/4000×/8000× refers to the dilution factor of the B7, from an original 10 mM solution of B7; e.g, 1000× represents a solution diluted by a factor of 1000, so as to result in a 10 micromolar solution. The numbers in the upper left corner of the plot (e.g., 88, 81, 74, 65, and 37 of FIG. 8A) refer to the measured percentage of proliferated cells.
FIGS. 10A-E are flow cytometry dataplots showing the enhancement of TIP60 inhibitors B7 suppression of Treg in vitro. FIG. 10A are the data for DMSO without any B7-type inhibitor; FIG. 10B are the data for B7-500×; FIG. 10C are the data for B7A-500×; FIG. 10D are the data for B7B-500; and FIG. 10E are the data for B7C-500×. In each case, the 500× refers to the dilution factor of the B7/B7A/B7B/B7C, from an original 10 mM solution of the compound; e.g, 500× represents a solution diluted by a factor of 500, so as to result in a 20 micromolar solution.
Several exemplary compounds of the present invention were screened at 10 μg/ml in vitro, at varying Treg:T cell ratios, using standard cell proliferation techniques (3 days, using CSFE dyes). Such techniques are well understood by those skilled in the art. For example, see Akimova T, Ge G, Golovina T, Mikheeva T, Wang L, Riley J L, Hancock W W., “Histone/protein deacetylase inhibitors increase suppressive functions of human FOXP3+ Tregs,” Clin Immunol. 2010 September; 136(3):348-63; Tao R, Hancock W W., Resistance of FOXP3+ regulatory T cells to Nur77-induced apoptosis promotes allograft survival,” PLoS One. 2008 May 28; 3(5):e2321; Tao R, Wang L, Murphy K M, Fraser C C, Hancock W W., “Regulatory T cell expression of herpesvirus entry mediator suppresses the function of B and T lymphocyte attenuator-positive effector T cells.,” J. Immunol. 2008 May 15; 180(10):6649-55; and Tao R, de Zoeten E F, Ozkaynak E, Chen C, Wang L, Porrett P M, Li B, Turka L A, Olson E N, Greene M I, Wells A D, Hancock W W., “Deacetylase inhibition promotes the generation and function of regulatory T cells,” Nat. Med. 2007 November; 13(11):1299-307 for the protocols used herein. Each of these references is incorporated by reference herein, at least for this purpose.
T cell proliferation was unimpaired in the absence of Treg cells (see left panels in FIG. 8A-D), but was increasingly impaired at increasing Treg concentration (for example, in FIG. 8A, increasing Treg:Tcell ratio from 0:1 to 1:1 reduced proliferation from 88% to 37% under otherwise identical conditions). […] Efficacy was also seen at 1 μg/ml for some compounds.
On the technique in general: In flow cytometry, cells or beads pass a laser one at a time.

Assay [2] concerns dextran sodium sulfate (DSS) model of colitis. Briefly: DSS model of established colitis in mice, remedial treatment. The assay is classed as in vivo. On the procedure: FIGS. 12A-C are the result of experiments described in Example 5. […] FIG. 12C provide graphical data for weight loss, bleeding score, and stool consistency (i.e., higher score reflects higher levels of diarrhea), wherein the mice were first subjected to DSS irritation, then subset populations were remedially treated after 8 days with the compound having Structure B7.
In a first test, the effects of exposure to dextran sodium sulfate (DSS) were evaluated, which results in a partially CD4-dependent inflammatory model of colitis, in wildtype (WT) versus TIP60dn C57BL/6 mice (8 mice/group).
Data were also generated using the compound of Structure B7 in the DSS model, in an experiment designed to test the ability of TIP60 inhibitor therapy to reverse established colitis by waiting until mice had ˜15% weight loss. In marked contrast to use of carrier DMSO alone, TIP60 inhibitor therapy (2 mg/kg/d, i.p.) reversed weight loss (p<0.01), blood in the stool (p<0.01) and diarrhea (p<0.005) (see FIG. 12C) and maintained colon length (p<0.01).

In a further assay the target is T1, TIP60 (Homo sapiens, UniProt Q92993).
T1 construct: expressed in transfected cells; host or cells: 293T cells
In words: TIP60 activity by acetylation of TIP60 or its substrate FOXP3 in transfected 293T cells (Ac-K immunoprecipitation, Western blot). The assay is classed as cell-based. As to conditions: 4 hours. The method, then: FIG. 11 illustrate the effect of B7G on TIP60. TIP60 activity was assessed by examining acetylation of TIP60 or its substrate FOXP3. Both TIP60 and FOXP3 were overexpressed in 293T cells. Acetylated proteins were first immunoprecipitated with the acetyl-lysine specific antibody Ac-K and then blotted with HRP conjugated antibodies to expression tags (HA for FOXP3 or FLAG for TIP60).
TIP60 is known to have acetyl transferase activity to acetylate itself (auto-acetylation) or substrates including FOXP3. To examine activity of B7G on TIP60, 293T cells were transfected with Flag-tagged TIP60 and HA-tagged FOXP3. 24 hours after transfection, cells were treated with various concentrations of B7G for 4 hours before cell lysates were collected. Acetylated proteins were precipitated by anti-acetyl lysine antibody Ac-K. FOXP3 and TIP60 in the lysate or precipitated by Ac-K antibody were identified by anti-HA-HRP and anti-FLAG-HRP respectively.
(In general: A western blot detects proteins with antibodies after separation by electrophoresis.)

[3] abbreviates: 2 mg/kg/d i.p., vs carrier DMSO, p<0.01.

T1 sequence (Q92993 whole entry, species assumed): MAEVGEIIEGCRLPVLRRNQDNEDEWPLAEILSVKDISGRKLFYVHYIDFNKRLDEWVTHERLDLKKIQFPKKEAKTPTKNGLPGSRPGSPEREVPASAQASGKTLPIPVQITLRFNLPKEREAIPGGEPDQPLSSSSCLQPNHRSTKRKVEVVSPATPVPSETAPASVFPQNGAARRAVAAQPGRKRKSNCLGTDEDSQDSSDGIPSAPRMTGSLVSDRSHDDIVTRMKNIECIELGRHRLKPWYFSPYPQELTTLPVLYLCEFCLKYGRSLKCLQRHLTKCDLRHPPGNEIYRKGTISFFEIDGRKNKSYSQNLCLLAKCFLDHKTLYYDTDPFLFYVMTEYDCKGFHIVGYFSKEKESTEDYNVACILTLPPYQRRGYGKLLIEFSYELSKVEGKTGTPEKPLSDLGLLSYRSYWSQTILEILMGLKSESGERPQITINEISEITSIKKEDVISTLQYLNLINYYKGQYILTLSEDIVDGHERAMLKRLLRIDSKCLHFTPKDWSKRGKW

For the molecule `Cc1ccc2cc(NC(=O)C3CC(=O)N(CCc4ccc(Cl)cc4)C3)ccc2n1` (stereo not drawn) [B7C], in the assay with FOXP3, the “FOXP3 bound on chromatin” value was “intervening with FOXP3 bound on chromatin”. In addition, the “enhancement of suppression of Treg in vitro” value (from here on “enhancement … in vitro”) in assay [1] is “enhancement”.
Consider `O=C(Nc1ccc(Cl)cc1)C1CC(=O)N(CCc2ccc(Cl)cc2)C1` (stereo not drawn) [B7A], for which the “enhancement … in vitro” value in assay [1] was “enhancement”.
For the molecule `Cc1ccc(NC(=O)C2CC(=O)N(CCc3ccc(Cl)cc3)C2)cc1` (stereo not drawn) [B7], the “enhancement … in vitro” value in assay [1] is “enhancement”. The “T cell proliferation in the absence of Treg cells” value in assay [1] (Treg:Tcell 0:1, left panels FIG. 8A-D) is “unimpaired”. The “percentage of proliferated cells” value in assay [1] (FIG. 8B (B7-1000x dilution of 10 mM, 10 μM), highest B7 dosage) is 25%; in assay [1] (FIG. 8C (B7-4000x dilution of 10 mM), middle B7 dosage), 30%; in assay [1] (FIG. 8D (B7-8000x dilution of 10 mM), lowest B7 dosage), 37%. Also, in assay [1] (dose dependent, varying Treg:T cell ratios), the “Treg activity (decreasing Tcell proliferation)” value is reported as “enhanced the Treg activity”. In addition, in assay [2] (2 mg/kg/d i.p., started at ~15% weight loss, vs carrier DMSO, p<0.01), the weight loss entry is given as “reversed”. Further, the diarrhea entry in assay [2] (2 mg/kg/d i.p., vs carrier DMSO, p<0.005) was “reversed”. For the same molecule, in assay [2] (setting [3]), the “blood in the stool” value was “reversed”. Also, the colon length entry in assay [2] (setting [3]) was “maintained”. Also, the “colon length relative to that of an unstressed control animal” value in assay [2] (single animal, 3% DSS then B7) is on record as “about 94%”. The “spleen size relative to control animal” value in assay [2] (single remediated animal, 3% DSS then B7) is on record as “comparable in size to that of the control”.
With `COc1ccc(CCN2CC(C(=O)Nc3ccc(F)c(Cl)c3)CC2=O)cc1OC` (stereo not drawn) [B7G], on TIP60 (32 μg/ml), the “Acetylated FOXP3 (HA-HRP blot of Ac-K precipitated proteins)” value is “reduced significantly” and the “Acetylated TIP60 (FLAG-HRP blot of Ac-K precipitated proteins)” value was “reduced significantly”. On TIP60 (lower concentration than 32 μg/ml), the TIP60 auto-acetylation entry is reported as “slightly increase”. At TIP60 (various concentrations), the “FOXP3 expression level in total cell lysate” value was “not significantly affected” and the “TIP60 expression level in total cell lysate” value is recorded as “not significantly affected”.
As for `COc1ccc(NC(=O)C2CC(=O)N(CCc3ccc(Cl)cc3)C2)cc1` (stereo not drawn) [B7B], the “enhancement … in vitro” value in assay [1] is “enhancement”.
